Like-named read-outs stand apart in the source and are kept apart here.
Tests used:
human BACE2 = target: T1, human BACE2 (Homo sapiens, UniProt Q9Y5Z0); assay: Fluorescent kinetic assay for human recombinant BACE 2 (WABC-6 peptide substrate); assay type: biochemical; conditions: for inhibition at 25 µM: read-out: BACE2. % inhibition; for IC50: 1.5 nM enzyme, 25 μM substrate, pH 4.5, room temperature
T1 sequence (Q9Y5Z0 63-518): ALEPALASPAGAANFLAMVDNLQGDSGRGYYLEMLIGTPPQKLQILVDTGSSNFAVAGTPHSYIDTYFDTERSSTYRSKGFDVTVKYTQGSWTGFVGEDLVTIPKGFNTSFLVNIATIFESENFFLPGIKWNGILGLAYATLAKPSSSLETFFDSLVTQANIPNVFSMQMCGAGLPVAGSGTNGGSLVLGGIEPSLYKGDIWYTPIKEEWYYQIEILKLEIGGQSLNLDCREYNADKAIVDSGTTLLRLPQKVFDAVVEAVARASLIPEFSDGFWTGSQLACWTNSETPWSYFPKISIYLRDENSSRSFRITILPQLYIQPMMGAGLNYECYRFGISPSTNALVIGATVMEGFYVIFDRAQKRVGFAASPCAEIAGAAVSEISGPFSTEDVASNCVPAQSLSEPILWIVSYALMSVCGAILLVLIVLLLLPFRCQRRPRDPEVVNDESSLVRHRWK
Experimental: Fluorescent Kinetic Assay for Human Recombinant BACE 2
This assay is used to provide kinetic and selectivity parameters for the analyses of the tested compounds.
Temperature: room temperature.
Dilution and Mixing Steps: Total Reaction Volume.: 100 μL • 1.
Readings at λex 320 nm, λem 420 nm are taken every 40-sec for 30 min at room temperature and to determine the linear slope for substrate cleavage rate (vi).

human BACE1 = human BACE1 (Homo sapiens, UniProt P56817); assay: Fluorescent kinetic assay, inhibition of BACE1 (WABC-6 peptide substrate); assay type: biochemical
human BACE1, sequence (P56817 46-501): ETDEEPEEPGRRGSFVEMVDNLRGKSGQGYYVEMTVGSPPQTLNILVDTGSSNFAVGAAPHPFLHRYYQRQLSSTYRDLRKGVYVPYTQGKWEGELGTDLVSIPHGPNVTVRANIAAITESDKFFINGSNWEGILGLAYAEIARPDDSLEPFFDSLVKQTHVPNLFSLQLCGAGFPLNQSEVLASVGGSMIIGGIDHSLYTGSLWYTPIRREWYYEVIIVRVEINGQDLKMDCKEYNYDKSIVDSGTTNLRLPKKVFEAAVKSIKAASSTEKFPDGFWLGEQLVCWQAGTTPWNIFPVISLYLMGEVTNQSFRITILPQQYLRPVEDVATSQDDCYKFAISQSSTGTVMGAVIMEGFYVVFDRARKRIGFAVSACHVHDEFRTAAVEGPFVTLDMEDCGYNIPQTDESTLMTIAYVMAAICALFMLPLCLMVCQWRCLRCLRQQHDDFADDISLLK
Experimental: Evaluation of the Enzyme Activity of Test Compounds and the Inhibition of hBACE1, MuBACE1 and hBACE2 by Test Compounds
The concentration is determined by absorbance at 354 nm using an extinction coefficient ε of 18172 M^−1cm^−1, The substrate stock is stored in small aliquots at −80° C. [Substrate Stock]=ABS^354 nm*10^6/18172 ([…])
Dilution and mixing steps: total reaction volume: 100 μL • 1. 2× inhibitor dilutions in buffer A (66.7 mM Na-Acetate, pH 4.5, 0.0667% CHAPS) are prepared, • 2. 4× enzyme dilution in buffer A (66.7 mM Na-Acetate, pH 4.5, 0.0667% CHAPS) are prepared, • 3. 100 μM substrate dilution in 1× PBS is prepared, • 4. 50 μL 2× Inhibitor and 25 μL 100 μM substrate are added to each well of 96-well plate (from DYNEX Technologies, VWR #: 11311-046), the immediately 25 μL 4× enzyme are added to the inhibitor and substrate mixer, the fluorescence readings are initiated.
Readings at λex 320 nm and λem 420 nm are taken every 40-sec for 30 min at room temperature to determine the linear slope for substrate cleavage rate (vi).

[1] = 10 nM enzyme, 25 μM substrate, pH 4.5, room temperature, read-out: IC50 (μM) BACE1.

| inhibition at 25 µM (human BACE2; at 25 μM) [%] | IC50 (human BACE1; [1]) [µM] | melting point [°C] | IC50 (human BACE2) [µM] | Compound | also measured |
| --- | --- | --- | --- | --- | --- |
| 52 | 0.15 |  |  | CC1(C)CN2C(N)=NC(c3ccc(OC(F)(F)F)cc3)(c3cccc(-c4cccnc4F)c3)C2=N1 (stereo not shown) [Example 42, 7-[3-(2-Fluoropyridin-3-yl)phenyl]-2,2-dimethyl-7-(4-trifluoromethoxyphenyl)-2,7-dihydro-3H-imidazo[1,5-a]imidazol-5-ylamine] |  |
| 44 | 0.1 | 99 to 122 |  | NC1=NC(c2ccc(OC(F)(F)F)cc2)(c2ccc(F)c(-c3cccnc3F)c2)C2=NCCCN12 (stereo not shown) [Example 15, 8-[4-fluoro-3-(2-fluoropyridin-3-yl)phenyl]-8-[4-(trifluoromethoxy)phenyl]-2,3,4,8-tetrahydroimidazo[1,5-a]pyrimidin-6-amine] |  |
|  |  | 106 to 119 |  | NC1=NC(c2cccc(-c3cccnc3F)c2)(c2ccc3c(c2)OCO3)C2=NCCCN12 (stereo not shown) [Example 40, 8-Benzo[1,3]dioxol-5-yl-8-[3-(2-fluoro-pyridin-3-yl)-phenyl]-2,3,4,8-tetrahydro-imidazo[1,5-a]pyrimidin-6-ylamine] | IC50 (human BACE1; read-out: IC50 (μM) BACE1.): 0.16 µM |
|  | 0.02 | 98 to 108 | 2.26 | NC1=NC(c2ccc(OC(F)F)cc2)(c2cccc(-c3cccnc3F)c2)C2=NCC3(CC3)CN12 (stereo not shown) [Example 44, 8′-[4-(Difluoromethoxy)phenyl]-8′-[3-(2-fluoropyridin-3-yl)phenyl]-2′,8′-dihydrospiro[cyclopropane-1,3′-imidazo[1,5-a]pyrimidin]-6′-amine] |  |
|  |  |  |  | NC1=N[C@@](c2ccc(OC(F)(F)F)cc2)(c2cccc(-c3cncnc3)c2)C2=NCCCN12 (single isomer, unassigned) [Example 31B] | inhibition at 25 µM (human BACE2): 28% |
|  |  |  | 10.4 | NC1=N[C@](c2ccc(OC(F)(F)F)cc2)(c2cccc(-c3cncnc3)c2)C2=NCCCN12 (single isomer, unassigned) [Example 31A] |  |
|  |  | 227 to 231 |  | N#CNC1=NC(c2ccc(OC(F)(F)F)cc2)(c2cccc(-c3cncnc3)c2)C2=NCCCN12 (stereo not shown) [Example 29, 8-(3-Pyrimidin-5-yl-phenyl)-8-(4-trifluoromethoxy-phenyl)-2,3,4,8-tetrahydro-imidazo[1,5-a]pyrimidin-6-yl-cyanamide] |  |
|  | 0.01 |  | 0.7 | NC1=N[C@](c2ccc(OC(F)F)cc2)(c2cccc(-c3cccnc3F)c2)C2=NCCCN12 [Example 45A, (8R)-8-(4-Difluoromethoxy-phenyl)-8-[3-(2-fluoro-pyridin-3-yl)-phenyl]-2,3,4,8-tetrahydro-imidazo[1,5-a]pyrimidin-6-ylamine] |  |
| 34 |  |  |  | NC1=N[C@](c2ccc(OC(F)(F)F)cc2)(c2cccc(-c3cncc(Cl)c3)c2)C2=NCCCN12 [Example 32B, (8R)-8-[3-(5-Chloropyridin-3-yl)phenyl]-8-[4-(trifluoromethoxy)-phenyl]-2,3,4,8-tetrahydroimidazo[1,5-a]pyrimidin-6-amine] | inhibition at 5 µM (human BACE1): 19% |
|  |  |  | 3.79 | NC1=N[C@@](c2ccc(OC(F)(F)F)cc2)(c2cccc(-c3cccnc3F)c2)C2=NCCCN12 (single isomer, unassigned) [Example 30B] |  |
|  |  | 105 to 115 | 11.4 | NC1=NC(c2ccc(OC(F)(F)F)cc2)(c2cccc(-c3cccnc3F)c2)C2=NCCCN12 (stereo not shown) [Example 17, 8-[3-(2-fluoropyridin-3-yl)phenyl]-8-[4-(trifluoromethoxy)phenyl]-2,3,4,8-tetrahydroimidazo[1,5-a]pyrimidin-6-amine] |  |
| 25 |  |  |  | NC1=N[C@](c2ccc(OC(F)(F)F)cc2)(c2cccc(-c3cnccc3F)c2)C2=NCCCN12 [Example 33B, (8R)-8-[3-(4-fluoropyridin-3-yl)phenyl]-8-[4-(trifluoromethoxy)phenyl]-2,3,4,8-tetrahydroimidazo[1,5-a]pyrimidin-6-amine] | inhibition at 5 µM (human BACE1): 43% |
| 35 |  |  |  | NC1=N[C@](c2ccc(OC(F)(F)F)cc2)(c2cccc(-c3cccnc3F)c2)C2=NCCCN12 (single isomer, unassigned) [Example 30A] |  |
| 50 | 0.23 |  |  | NC1=NC(c2ccc(OC(F)(F)F)cc2)(c2cccc(-c3cncnc3)c2)c2nccn21 (stereo not shown) [Example 5] |  |
|  |  |  | 10.8 | NC1=NC(c2ccc(OC(F)(F)F)cc2)(c2cccc(-c3cccnc3F)c2)C2=NCCCCCN12 (stereo not shown) [Example 37, 1-[3-(2-Fluoro-pyridin-3-yl)-phenyl]-1-(4-trifluoromethoxy-phenyl)-1,4,5,6,7,8-hexahydro-2,3a,9-triaza-cyclopentacycloocten-3-ylamine] |  |
| 60 |  | 136 to 140 |  | COc1ccc(C2(c3cccc(-c4cncnc4)c3)N=C(N)N3CCCN=C32)cc1 (stereo not shown) [Example 22, 8-(4-methoxyphenyl)-8-(3-pyrimidin-5-ylphenyl)-2,3,4,8-tetrahydroimidazo[1,5-a]pyrimidin-6-amine] |  |
|  |  | 83 to 97 |  | NC1=NC(c2ccc(OC(F)(F)F)cc2)(c2cccc(-c3cnccc3F)c2)C2=NCCCN12 (stereo not shown) [Example 27, 8-[3-(4-fluoropyridin-3-yl)phenyl]-8-[4-(trifluoromethoxy)phenyl]-2,3,4,8-tetrahydroimidazo[1,5-a]pyrimidin-6-amine] |  |
| 25 |  |  |  | NC1=NC(c2ccc(OC(F)(F)F)cc2)(c2cccc(-c3ccc[n+]([O-])c3F)c2)C2=NCCCN12 (stereo not shown) [Example 34, 8-[3-(2-Fluoro 1-oxy-pyridin-3-yl)-phenyl]-8-(4-trifluoromethoxy-phenyl)-2,3,4,8-tetrahydro-imidazo[1,5-a]pyrimidin-6-ylamine] |  |
| 60 |  |  |  | NC1=N[C@@](c2ccc(OC(F)F)cc2)(c2cccc(-c3cccnc3F)c2)C2=NCCCN12 [Example 45B, (8S)-8-(4-Difluoromethoxy-phenyl)-8-[3-(2-fluoro-pyridin-3-yl)-phenyl]-2,3,4,8-tetrahydro-imidazo[1,5-a]pyrimidin-6-ylamine] | inhibition at […] (human BACE1; at 2.5 uM): 49% |
|  | 0.05 |  | 4 | NC1=N[C@@](c2ccc(OC(F)(F)F)cc2)(c2cccc(-c3cnccc3F)c2)C2=NCCCN12 [Example 33A, (8S)-8-[3-(4-fluoropyridin-3-yl)phenyl]-8-[4-(trifluoromethoxy)-phenyl]-2,3,4,8-tetrahydroimidazo[1,5-a]pyrimidin-6-amine] |  |
|  | 0.029 |  | 0.272 | NC1=N[C@@](c2ccc(OC(F)(F)F)cc2)(c2cccc(-c3cncc(Cl)c3)c2)C2=NCCCN12 [Example 32A, (8S)-8-[3-(5-Chloropyridin-3-yl)phenyl]-8-[4-(trifluoromethoxy)-phenyl]-2,3,4,8-tetrahydroimidazo[1,5-a]pyrimidin-6-amine] |  |

| Compound | inhibition at 25 µM (human BACE2; at 25 μM) [%] | IC50 (human BACE1; [1]) [µM] | melting point [°C] | IC50 (human BACE2) [µM] | also measured |
| --- | --- | --- | --- | --- | --- |
| NC1=NC(c2ccc(OC(F)(F)F)cc2)(c2cccc(-c3cncnc3)c2)C2=NCCCN12 (stereo not shown) [Example 16, 8-(3-pyrimidin-5-ylphenyl)-8-[4-(trifluoromethoxy)phenyl]-2,3,4,8-tetrahydroimidazo[1,5-a]pyrimidin-6-amine] |  |  | 214 to 218 |  | inhibition at 25 µM (human BACE2): 49% |
| NC1=NC(c2ccc(OC(F)(F)F)cc2)(c2cccc(-c3cccnc3F)c2)C2=NCCCCN12 (stereo not shown) [Example 36, 9-[3-(2-Fluoro-pyridin-3-yl)-phenyl]-9-(4-trifluoromethoxy-phenyl)-2,4,5,9-tetrahydro-3H-imidazo[1,5-a][1,3]diazepin-7-ylamine] |  |  |  | 7.32 | IC50 (human BACE1): 0.071 µM |

Source: patent US20090042912A1, “DIPHENYLIMIDAZOLYL COMPOUNDS AS INHIBITORS OF beta-SECRETASE” (Wyeth, priority 2004, published 2009)
